Series [1] concerns the target T1, DCTD (Homo sapiens, UniProt P32321).
T1 sequence (P32321 1-178): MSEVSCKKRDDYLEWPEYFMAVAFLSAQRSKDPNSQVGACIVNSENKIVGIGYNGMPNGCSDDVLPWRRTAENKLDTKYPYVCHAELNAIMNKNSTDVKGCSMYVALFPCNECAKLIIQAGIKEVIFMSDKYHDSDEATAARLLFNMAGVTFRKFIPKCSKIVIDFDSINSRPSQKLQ
As to the kind of experiment: thin-layer chromatography of dCMP deamination. It is filed as biochemical. Conditions: allosteric activator; substrate dCMP; 37 C, 15 min; 50 mM Tris-HCl pH 7.5.

Substrate in series [2]: Nc1ccn([C@H]2C[C@H](O)[C@@H](COP(=O)(O)OP(=O)(O)OP(=O)(O)O)O2)c(=O)n1
As to the kind of experiment: purified protein. It counts as biochemical, Homo sapiens. Conditions: 50 mM Tris-HCl pH 7.5, 200 ng enzyme, sigmoidal fit slightly better than Michaelis-Menten.

For the molecule `Nc1ccn([C@H]2C[C@H](O)[C@@H](COP(=O)(O)OP(=O)(O)OP(=O)(O)O)O2)c(=O)n1` [dCTP], in series [1], the “thin-layer chromatography of dCMP deamination” value was “DCTD converted dCMP to dUMP, with activity enhanced by the allosteric activator dCTP”.

B1: CDADC1 (Homo sapiens) (protein)
chain: MKEAGQMQNLESARAGRSVSTQTGSMTGQIPRLSKVNLFTLLSLWMELFPAEAQRQKSQKNEEGKHGPLGDNEERTRVSTDKRQVKRTGLVVVKNMKIVGLHCSSEDLHAGQIALIKHGSRLKNCDLYFSRKPCSACLKMIVNAGVNRISYWPADPEISLLTEASSSEDAKLDAKAVERLKSNSRAHVCVLLQPLVCYMVQFVEETSYKCDFIQKITKTLPDANTDFYYECKQERIKEYEMLFLVSNEEMHKQILMTIGLENLCENPYFSNLRQNMKDLILLLATVASSVPNFKHFGFYRSNPEQINEIHNQSLPQEIARHCMVQARLLAYRTEDHKTGVGAVIWAEGKSRSCDGTGAMYFVGCGYNAFPVGSEYADFPHMDDKQKDREIRKFRYIIHAEQNALTFRCQEIKPEERSMIFVTKCPCDECVPLIKGAGIKQIYAGDVDVGKKKADISYMRFGELEGVSKFTWQLNPSGAYGLEQNEPERRENGVLRPVPQKEEQHQDKKLRLGIH
notes: two deaminase domains CDD1 and CDD2
Turning to B1, the Km in series [2] was 288.5 ± 30.6 µM.

Broadly, the Km is the substrate concentration at which the rate is half of its maximum.

For the origin of these results see article PMC12184417, “CDADC1 is a vertebrate-specific dCTP deaminase that metabolizes gemcitabine and decitabine to prevent cellular toxicity” (Proceedings of the National Academy of Sciences of the …, 2025).
